{"source": "ChEMBL document CHEMBL1155492", "about": "“Evaluation of thieno[3,2-b]pyrrole[3,2-d]pyridazinones as activators of the tumor cell specific M2 isoform of pyruvate kinase” (Bioorg Med Chem Lett, 2010)"}
{"tested_on": "not listed separately", "test": "Aqueous solubility in DMSO at pH 7.4 by quantitative nitrogen detection assay", "type": "physicochemical", "conditions": "aqueous solution with DMSO; call rule not given here", "units": {"solubility kinetic": "µg/mL"}}
{"smiles": "Cc1cc2c(s1)c1cnn(Cc3ccccc3F)c(=O)c1n2C", "solubility kinetic": "< 0.2"}
{"smiles": "Cn1c2cc([S+](C)[O-])sc2c2cnn(Cc3cccc(N)c3)c(=O)c21", "note": "(stereo unspecified)", "solubility kinetic": 29.6}
{"smiles": "Cn1c2cc([S+](C)[O-])sc2c2cnn(Cc3cccc(O)c3)c(=O)c21", "note": "(stereo unspecified)", "solubility kinetic": 16.9}
{"smiles": "Cn1c2cc([S+](C)[O-])sc2c2cnn(Cc3ccccc3F)c(=O)c21", "note": "(stereo unspecified)", "solubility kinetic": 4.4}
{"smiles": "COc1cccc(Cn2ncc3c4sc([S+](C)[O-])cc4n(C)c3c2=O)c1", "note": "(stereo unspecified)", "solubility kinetic": 37.4}
{"target": "T1, Pyruvate kinase PKM (Homo sapiens, UniProt P14618)", "T1 sequence (P14618 whole entry)": "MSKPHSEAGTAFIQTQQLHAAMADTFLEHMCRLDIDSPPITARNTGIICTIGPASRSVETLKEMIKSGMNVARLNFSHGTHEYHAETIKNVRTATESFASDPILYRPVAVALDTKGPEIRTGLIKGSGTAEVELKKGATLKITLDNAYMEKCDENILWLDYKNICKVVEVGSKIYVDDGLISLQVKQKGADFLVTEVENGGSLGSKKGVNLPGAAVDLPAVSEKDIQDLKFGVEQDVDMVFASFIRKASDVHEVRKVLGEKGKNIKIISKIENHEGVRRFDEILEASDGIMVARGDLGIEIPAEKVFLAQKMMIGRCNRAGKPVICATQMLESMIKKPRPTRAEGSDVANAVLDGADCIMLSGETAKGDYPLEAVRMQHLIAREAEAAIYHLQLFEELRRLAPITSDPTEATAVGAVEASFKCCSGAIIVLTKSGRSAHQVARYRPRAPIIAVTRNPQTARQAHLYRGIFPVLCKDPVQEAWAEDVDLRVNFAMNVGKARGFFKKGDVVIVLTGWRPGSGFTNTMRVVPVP", "conditions": "not given", "units": {"AC50": "nM"}}
{"smiles": "Cn1c2cc(B(O)O)sc2c2cnn(Cc3ccccc3F)c(=O)c21", "AC50": "> 10000"}
{"smiles": "COc1ccc(Cn2ncc3c4sc(C)cc4n(C)c3c2=O)cc1F", "AC50": 225}
{"smiles": "CC(=O)Nc1cc2c(s1)c1cnn(Cc3ccccc3F)c(=O)c1n2C", "AC50": "> 25000"}
{"smiles": "Cc1ccc(Cn2ncc3c4sc(C)cc4n(C)c3c2=O)c(F)c1", "AC50": 108}
{"smiles": "CC(O)c1cc2c(s1)c1cnn(Cc3ccccc3F)c(=O)c1n2C", "note": "(stereo unspecified)", "AC50": 136}
{"smiles": "CCn1c2cc(C)sc2c2cnn(Cc3ccccc3F)c(=O)c21", "AC50": 5900}
{"smiles": "Cn1c2ccsc2c2ncn(Cc3ccccc3F)c(=O)c21", "AC50": "> 35000"}
{"smiles": "Cc1cc2c(s1)c1cnn(Cc3ccc(C(F)(F)F)cc3F)c(=O)c1n2C", "AC50": "> 15000"}
{"smiles": "Cn1c2cc([S+](C)[O-])sc2c2cnn(Cc3cccc(O)c3)c(=O)c21", "note": "(stereo unspecified)", "AC50": 130}
{"smiles": "Cc1cc2c(s1)c1c(C)nn(Cc3ccccc3F)c(=O)c1n2C", "AC50": "> 30000"}
{"smiles": "COc1cccc(Cn2ncc3c4sc([S+](C)[O-])cc4n(C)c3c2=O)c1", "note": "(stereo unspecified)", "AC50": 73}
{"smiles": "CCCCCn1ncc2c3sc(C)cc3n(C)c2c1=O", "AC50": "> 35000"}
{"target": "T1, Pyruvate kinase PKM", "conditions": "not given", "remark": "another data set of the same source"}
{"smiles": "Cc1cc2c(s1)c1cnn(-c3ccccc3)c(=O)c1n2C", "AC50": "Not Active"}
{"smiles": "Cc1cc2c(s1)c1cnn(Cc3ccccc3F)c(=O)c1n2C(C)C", "AC50": "Not Active"}
{"smiles": "Cc1cc2[nH]c3c(=O)n(Cc4ccccc4F)ncc3c2s1", "AC50": "Not Active"}
{"smiles": "Cn1c2cc(S(C)(=O)=O)sc2c2cnn(Cc3ccccc3F)c(=O)c21", "AC50": "Not Active"}
